Experimental data published in ChEMBL document CHEMBL6074630, “Discovery of potent LRRK2 inhibitors by ensemble virtual screening strategy and bioactivity evaluation” (Eur J Med Chem, 2024).
The source made the active and inactive calls. The rule behind the calls is not given here.

Assays:
[1] = tested on: Leucine-rich repeat serine/threonine-protein kinase 2 (Homo sapiens), Q5S007 [G2019S]; assay: Inhibition of LRRK2 G2019S mutant (unknown origin) using LRRKtide as substrate at 10 uM incubated for 60 mins in presence of ATP by ADP-Glo reagent based assay relative to control
[2] = molecular target: T1, Leucine-rich repeat serine/threonine-protein kinase 2 (Homo sapiens, UniProt Q5S007); assay: Inhibition of wild type LRRK2 (unknown origin) using LRRKtide as substrate incubated for 60 mins in presence of ATP by ADP-Glo reagent based assay
[3] = molecular target: T2, Leucine-rich repeat serine/threonine-protein kinase 2 (Homo sapiens, UniProt Q5S007, G2019S); assay: Inhibition of LRRK2 G2019S mutant (unknown origin) using LRRKtide as substrate incubated for 60 mins in presence of ATP by ADP-Glo reagent based assay
[4] = molecular target: T1, Leucine-rich repeat serine/threonine-protein kinase 2; assay: Inhibition of wild type LRRK2 (unknown origin) using LRRKtide as substrate at 10 uM incubated for 60 mins in presence of ATP by ADP-Glo reagent based assay relative to control
[5] = molecular target: T2, Leucine-rich repeat serine/threonine-protein kinase 2; assay: (§1) Inhibition of 3xFlag-Puro-tagged human LRRK2 G2019S mutant phosphorylation at Ser935 residue overexpressed in HEK293T cells incubated for 24 hrs by SDS-PAGE analysis; format: cell-based
[6] = tested on: Leucine-rich repeat serine/threonine-protein kinase 2 (Homo sapiens), Q5S007 [G2019S]; assay: as §1; format: cell-based
Danio rerio [7] = species on record: Danio rerio; assay: Neuroprotective activity against 6-OHDA-induced neurotoxicity in wild type Zebrafish AB larvae assessed as increase of total movement distance at 12.5 uM treated with compound from 3 days post fertilization and measured after 4 days; format: functional, organism-based; details: time 4.0 day
Danio rerio [8] = species on record: Danio rerio; assay: Neuroprotective activity against 6-OHDA-induced neurotoxicity in wild type Zebrafish AB larvae assessed as increase in travel distance at high velocity at 12.5 uM treated with compound from 3 days post fertilization and measured after 4 days; format: functional, organism-based; details: time 4.0 day
[9] = Toxicity in wild type Zebrafish AB larvae assessed as effect on survival rate at 12.5 to 100 uM administered from 3 days post fertilization and measured after 96 hrs; set-up: species or system Danio rerio; details: in vivo, dose 12.5-100 µM
[10] = Toxicity in wild type Zebrafish AB larvae administered from 3 days post fertilization and measured after 96 hrs; set-up: species or system Danio rerio; details: in vivo
[11] = molecular target: T1, Leucine-rich repeat serine/threonine-protein kinase 2; assay: Inhibition of 3xFlag-Puro-tagged wildtype human LRRK2 phosphorylation at Ser935 residue overexpressed in HEK293T cells incubated for 24 hrs by SDS-PAGE analysis; format: cell-based
Danio rerio [12] = species on record: Danio rerio; assay: Neuroprotective activity against 6-OHDA-induced neurotoxicity in wild type Zebrafish AB larvae assessed as increase in total swimming distance at 150 uM treated with compound from 3 days post fertilization and measured after 4 days; format: functional, organism-based; details: time 4.0 day
Danio rerio [13] = species on record: Danio rerio; assay: Neuroprotective activity against 6-OHDA-induced neurotoxicity in wild type Zebrafish AB larvae assessed as improvement in swimming behavior at 150 uM treated with compound from 3 days post fertilization and measured after 4 days; format: functional, organism-based; details: time 4.0 day
[14] = tested on: Leucine-rich repeat serine/threonine-protein kinase 2 (Homo sapiens), Q5S007 [G2019S]; assay: Inhibition of 3xFlag-Puro-tagged human LRRK2 G2019S mutant phosphorylation at Ser935 residue overexpressed in HEK293T cells at 10 uM incubated for 24 hrs by SDS-PAGE analysis relative to control; format: cell-based
[15] = molecular target: T1, Leucine-rich repeat serine/threonine-protein kinase 2; assay: Inhibition of 3xFlag-Puro-tagged wildtype human LRRK2 phosphorylation at Ser935 residue overexpressed in HEK293T cells at 10 uM incubated for 24 hrs by SDS-PAGE analysis relative to control; format: cell-based
Danio rerio [16] = species on record: Danio rerio; assay: Neuroprotective activity against 6-OHDA-induced neurotoxicity in wild type Zebrafish AB larvae assessed as increase in travel distance at high velocity treated with compound from 3 days post fertilization and measured after 4 days; format: functional, organism-based; details: dose 12.5-50 µM, time 4.0 day
Danio rerio [17] = species on record: Danio rerio; assay: Neuroprotective activity against 6-OHDA-induced neurotoxicity in wild type Zebrafish AB larvae assessed as increase in travel distance at high velocity at 50 uM treated with compound from 3 days post fertilization and measured after 4 days; format: functional, organism-based; details: time 4.0 day
Danio rerio [18] = species on record: Danio rerio; assay: Neuroprotective activity against 6-OHDA-induced neurotoxicity in wild type Zebrafish larvae AB assessed as increase in travel distance at high velocity at 12.5 to 50 uM treated with compound from 3 days post fertilization and measured after 4 days; format: functional, organism-based; details: dose 12.5-50 µM, time 4.0 day

Leucine-rich repeat serine/threonine-protein kinase 2 (Homo sapiens), Q5S007 [G2019S], sequence (Q5S007 whole entry G2019S): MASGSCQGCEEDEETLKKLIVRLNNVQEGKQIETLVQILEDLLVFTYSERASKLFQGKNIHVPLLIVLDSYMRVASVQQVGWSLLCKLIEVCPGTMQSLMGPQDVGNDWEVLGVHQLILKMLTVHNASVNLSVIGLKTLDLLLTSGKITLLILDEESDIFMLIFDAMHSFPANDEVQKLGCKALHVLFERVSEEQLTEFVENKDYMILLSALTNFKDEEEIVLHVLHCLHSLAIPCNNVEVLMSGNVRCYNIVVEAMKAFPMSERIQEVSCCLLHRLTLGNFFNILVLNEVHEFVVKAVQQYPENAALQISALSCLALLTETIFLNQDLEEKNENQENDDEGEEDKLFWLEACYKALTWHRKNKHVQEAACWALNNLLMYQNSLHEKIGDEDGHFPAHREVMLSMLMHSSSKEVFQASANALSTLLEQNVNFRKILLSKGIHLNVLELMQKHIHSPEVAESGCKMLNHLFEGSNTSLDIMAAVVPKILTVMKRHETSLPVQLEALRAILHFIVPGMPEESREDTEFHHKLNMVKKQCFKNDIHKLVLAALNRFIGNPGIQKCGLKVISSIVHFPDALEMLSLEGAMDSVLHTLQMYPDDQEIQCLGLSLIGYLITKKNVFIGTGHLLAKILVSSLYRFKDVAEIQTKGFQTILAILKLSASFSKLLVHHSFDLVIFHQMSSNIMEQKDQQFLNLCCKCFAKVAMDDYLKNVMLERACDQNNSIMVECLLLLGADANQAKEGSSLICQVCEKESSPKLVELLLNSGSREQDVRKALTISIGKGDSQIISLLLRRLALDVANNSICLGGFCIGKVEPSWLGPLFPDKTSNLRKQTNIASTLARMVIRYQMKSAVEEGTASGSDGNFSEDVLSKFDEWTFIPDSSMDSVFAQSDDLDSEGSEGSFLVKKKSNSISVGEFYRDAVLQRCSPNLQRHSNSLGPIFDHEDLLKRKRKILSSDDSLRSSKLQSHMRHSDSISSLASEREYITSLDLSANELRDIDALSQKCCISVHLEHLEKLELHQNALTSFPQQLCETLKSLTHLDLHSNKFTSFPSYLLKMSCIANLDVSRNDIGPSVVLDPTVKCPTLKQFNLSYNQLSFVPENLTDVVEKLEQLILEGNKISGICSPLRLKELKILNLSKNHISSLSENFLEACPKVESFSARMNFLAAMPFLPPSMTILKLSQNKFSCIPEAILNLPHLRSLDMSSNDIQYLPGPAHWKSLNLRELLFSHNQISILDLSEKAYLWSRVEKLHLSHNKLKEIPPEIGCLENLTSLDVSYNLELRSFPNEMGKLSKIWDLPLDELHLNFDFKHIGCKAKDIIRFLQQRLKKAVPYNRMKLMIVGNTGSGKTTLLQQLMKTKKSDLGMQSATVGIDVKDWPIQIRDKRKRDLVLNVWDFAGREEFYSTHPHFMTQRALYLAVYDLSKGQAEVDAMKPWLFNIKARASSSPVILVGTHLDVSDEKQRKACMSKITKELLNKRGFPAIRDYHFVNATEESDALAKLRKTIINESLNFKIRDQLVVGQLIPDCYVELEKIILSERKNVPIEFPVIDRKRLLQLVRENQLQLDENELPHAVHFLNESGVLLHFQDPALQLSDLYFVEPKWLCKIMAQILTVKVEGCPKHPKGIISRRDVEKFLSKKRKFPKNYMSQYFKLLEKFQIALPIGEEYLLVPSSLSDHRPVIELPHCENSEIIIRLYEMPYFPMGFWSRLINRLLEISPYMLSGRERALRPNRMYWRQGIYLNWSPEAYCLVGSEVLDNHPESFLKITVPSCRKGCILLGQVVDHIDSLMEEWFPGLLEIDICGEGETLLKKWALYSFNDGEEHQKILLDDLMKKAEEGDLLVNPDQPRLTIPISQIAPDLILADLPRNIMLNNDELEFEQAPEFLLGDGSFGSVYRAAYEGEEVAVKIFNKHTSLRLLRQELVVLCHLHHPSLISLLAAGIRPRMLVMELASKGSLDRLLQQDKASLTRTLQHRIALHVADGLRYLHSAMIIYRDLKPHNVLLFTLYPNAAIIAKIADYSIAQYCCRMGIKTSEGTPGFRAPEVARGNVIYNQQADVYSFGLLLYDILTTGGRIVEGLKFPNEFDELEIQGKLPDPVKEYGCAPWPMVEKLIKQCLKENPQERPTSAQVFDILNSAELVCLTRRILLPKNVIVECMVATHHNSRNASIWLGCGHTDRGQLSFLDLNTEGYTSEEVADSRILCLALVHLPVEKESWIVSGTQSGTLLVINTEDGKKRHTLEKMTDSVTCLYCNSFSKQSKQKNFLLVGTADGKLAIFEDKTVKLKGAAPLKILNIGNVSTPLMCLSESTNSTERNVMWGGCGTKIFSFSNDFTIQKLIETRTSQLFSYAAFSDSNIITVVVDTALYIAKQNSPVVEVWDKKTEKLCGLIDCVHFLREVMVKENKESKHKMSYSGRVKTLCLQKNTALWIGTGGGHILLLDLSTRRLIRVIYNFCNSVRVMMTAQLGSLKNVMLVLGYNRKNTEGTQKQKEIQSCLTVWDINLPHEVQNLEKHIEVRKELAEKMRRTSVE
T2 sequence (Q5S007 whole entry G2019S): as above
T1 sequence (Q5S007 whole entry): as the sequence (Q5S007 whole entry G2019S) above, with S2019G counted along it

## c1ccc2c(c1)ncn1nc(-c3cc(C4CC4)[nH]n3)nc21
[1]
  inhibition: > 50%
[2]
  IC50: 7150 nM
[3]
  IC50: 5590 nM
[4]
  inhibition: > 50%

## CNC(=O)c1sc2ccc(NC(=O)c3n[nH]c4ccccc34)cc2c1OC
[1]
  inhibition: > 50%
[2]
  IC50: 50300 nM
[3]
  IC50: 2090 nM
[4]
  inhibition: > 50%

## COc1cc(C(=O)N2CCC(N3CCN(C)CC3)CC2)ccc1Nc1ncc2c(n1)N(C)c1ccccc1C(=O)N2C
[5]
  IC50: 22.1 nM
[6]
  inhibition: Dose-dependent-effect
Danio rerio [7]
  Activity: Active
[2]
  IC50: 3.1 nM
Danio rerio [8]
  Activity: Active
[9]
  Activity: Toxic
[10]
  LC50 at 96 h: > 100000 nM
[11]
  IC50: 17 nM
  inhibition: Dose-dependent-effect

## N[C@@H](Cc1ccc(O)c(O)c1)C(=O)O
Danio rerio [12]
  Activity: Active
Danio rerio [13]
  Activity: Active

## O=C(Nc1n[nH]c2ccccc12)c1cc(-c2cccnc2)n[nH]1
[1]
  inhibition: > 80%
[5]
  IC50: 605 nM
[6]
  inhibition: Dose-dependent-effect
[14]
  inhibition: > 60%
[15]
  inhibition: > 80%
[2]
  IC50: 803 nM
[3]
  IC50: 556 nM
[4]
  inhibition: > 80%
[11]
  IC50: 1190 nM
  inhibition: Dose-dependent-effect

## CC[C@](C)(Nc1ccnc(-c2c[nH]c3ncccc23)n1)C(=O)NCC(F)(F)F
[1]
  inhibition: > 80%
[5]
  IC50: 337 nM
[6]
  inhibition: Dose-dependent-effect
[14]
  inhibition: > 60%
[15]
  inhibition: > 80%
[2]
  IC50: 1340 nM
[3]
  IC50: 218 nM
[9]
  Activity: Toxic
[4]
  inhibition: > 80%
[10]
  LC50 at 96 h: > 100000 nM
Danio rerio [16]
  Activity: Dose-dependent-effect
Danio rerio [17]
  Activity: Active
[11]
  IC50: 1670 nM
  inhibition: Dose-dependent-effect

## Cn1cccc1-c1cc(C(=O)N/N=C2/C(=O)Nc3ccccc32)[nH]n1
[1]
  inhibition: > 50%
[2]
  IC50: 39400 nM
[3]
  IC50: 3630 nM
[4]
  inhibition: > 50%

## Cl.c1cc(OCCN2CCCCC2)cc(-c2n[nH]c3ccc(-c4nc[nH]n4)cc23)c1
[5]
  IC50: 49.1 nM
[2]
  IC50: 9.6 nM
[3]
  IC50: 22.4 nM
[9]
  Activity: Toxic
[10]
  LC50 at 96 h: > 100000 nM
[11]
  IC50: 27.1 nM

## Fc1ccc(-c2n[nH]cc2/C=N\Nc2nc3ccccc3[nH]2)cc1
[1]
  inhibition: > 50%
[2]
  IC50: 3120 nM
[3]
  IC50: 4920 nM
[4]
  inhibition: > 50%

## c1cc(OCCN2CCCCC2)cc(-c2n[nH]c3ccc(-c4nnc[nH]4)cc23)c1
[1]
  inhibition: > 80%
[6]
  inhibition: Dose-dependent-effect
[14]
  inhibition: > 60%
[15]
  inhibition: > 80%
[4]
  inhibition: > 80%
Danio rerio [18]
  Activity: inactive
[11]
  inhibition: Dose-dependent-effect
